Experimental findings from ChEMBL document CHEMBL5625267, “Glycosidase-activated H2S donorsto enhance chemotherapy efficacy” (Bioorg Med Chem Lett, 2024) are described below.

Calls of active or inactive are those of the source. The rule behind the calls is not given here.

The test system of the first series is HeLa. Nature of the series: Antiproliferative activity against human HeLa cells assessed as cell viability at 50 uM incubated for 24 hrs by MTT assay relative to control. The series is classed as functional. As to conditions: read-out: Activity.
For `OC[C@H]1O[C@H](Oc2ccc(COC(=S)Nc3ccc(C(F)(F)F)cc3)cc2F)[C@@H](O)[C@@H](O)[C@@H]1O`, the viability at 50 µM stood at 78.7%.
Same read-out and setting: to `OC[C@H]1O[C@@H](Oc2ccc(COC(=S)Nc3ccc(C(F)(F)F)cc3)cc2)[C@H](O)[C@@H](O)[C@H]1O` belongs 92%; to `OC[C@H]1O[C@@H](Oc2ccc(COC(=S)Nc3ccc(C(F)(F)F)cc3)cc2)[C@H](O)[C@@H](O)[C@@H]1O`, 86.9%.

For the next series, the system named is HepG2. Nature of the series: Antiproliferative activity against human HepG2 cells assessed as cell viability at 50 uM incubated for 24 hrs by MTT assay relative to control. The class given is functional. Conditions: read-out: Activity. (In general: Tetrazolium assays rely on reduction of a dye to a coloured formazan, in cell work by metabolically active cells.)
Take `OC[C@H]1O[C@H](Oc2ccc(COC(=S)Nc3ccc(C(F)(F)F)cc3)cc2F)[C@@H](O)[C@@H](O)[C@@H]1O`: the viability at 50 µM was found to be 45.7%.
As to `OC[C@H]1O[C@@H](Oc2ccc(COC(=S)Nc3ccc(C(F)(F)F)cc3)cc2)[C@H](O)[C@@H](O)[C@H]1O`, the viability at 50 µM is 78.1%.
As for `OC[C@H]1O[C@@H](Oc2ccc(COC(=S)Nc3ccc(C(F)(F)F)cc3)cc2)[C@H](O)[C@@H](O)[C@@H]1O`, the viability at 50 µM amounted to 87.9%.

Tested on in another series: not listed separately
Nature of the series: Antiproliferative activity against mouse 3T3 cells assessed as cell viability at 50 uM incubated for 24 hrs by MTT assay relative to control. The class given is toxicity, cell-based. As to conditions: NIH3T3 cells, read-out: Activity.
For the molecule `OC[C@H]1O[C@H](Oc2ccc(COC(=S)Nc3ccc(C(F)(F)F)cc3)cc2F)[C@@H](O)[C@@H](O)[C@@H]1O`, the viability at 24 h, 50 µM was determined as 86.3%.
On to `OC[C@H]1O[C@@H](Oc2ccc(COC(=S)Nc3ccc(C(F)(F)F)cc3)cc2)[C@H](O)[C@@H](O)[C@H]1O`, for which the viability at 24 h, 50 µM amounted to 89.8%.
In the case of `OC[C@H]1O[C@@H](Oc2ccc(COC(=S)Nc3ccc(C(F)(F)F)cc3)cc2)[C@H](O)[C@@H](O)[C@@H]1O`, the viability at 24 h, 50 µM turned out to be 88.1%.

The subject of the next series is HeLa. Nature of the series: Antiproliferative activity against human HeLa cells assessed as cell viability at 80 uM incubated for 24 hrs by MTT assay relative to control. The series is classed as functional. Conditions: read-out: Activity.
On to `OC[C@H]1O[C@H](Oc2ccc(COC(=S)Nc3ccc(C(F)(F)F)cc3)cc2F)[C@@H](O)[C@@H](O)[C@@H]1O`, for which the viability at 80 µM turned out to be 72.6%.
For the molecule `OC[C@H]1O[C@@H](Oc2ccc(COC(=S)Nc3ccc(C(F)(F)F)cc3)cc2)[C@H](O)[C@@H](O)[C@H]1O`, the viability at 80 µM turned out to be 82.1%.
Turning to `OC[C@H]1O[C@@H](Oc2ccc(COC(=S)Nc3ccc(C(F)(F)F)cc3)cc2)[C@H](O)[C@@H](O)[C@@H]1O`, the viability at 80 µM is 92%.

The test system of the next series is HepG2. Nature of the series: Antiproliferative activity against human HepG2 cells assessed as cell viability at 80 uM incubated for 24 hrs by MTT assay relative to control. As to conditions: read-out: Activity. The series is classed as functional.
`OC[C@H]1O[C@H](Oc2ccc(COC(=S)Nc3ccc(C(F)(F)F)cc3)cc2F)[C@@H](O)[C@@H](O)[C@@H]1O`: the viability at 80 µM came out at 49%.
Take `OC[C@H]1O[C@@H](Oc2ccc(COC(=S)Nc3ccc(C(F)(F)F)cc3)cc2)[C@H](O)[C@@H](O)[C@H]1O`: the viability at 80 µM stood at 68.9%.
Take `OC[C@H]1O[C@@H](Oc2ccc(COC(=S)Nc3ccc(C(F)(F)F)cc3)cc2)[C@H](O)[C@@H](O)[C@@H]1O`: the viability at 80 µM stood at 91.2%.

Tested on in a further series: not listed separately
Nature of the series: Antiproliferative activity against mouse 3T3 cells assessed as cell viability at 80 uM incubated for 24 hrs by MTT assay relative to control. As to conditions: NIH3T3 cells, read-out: Activity. The class given is toxicity, cell-based.
On to `OC[C@H]1O[C@H](Oc2ccc(COC(=S)Nc3ccc(C(F)(F)F)cc3)cc2F)[C@@H](O)[C@@H](O)[C@@H]1O`, for which the viability at 24 h, 80 µM was 83.9%.
For the molecule `OC[C@H]1O[C@@H](Oc2ccc(COC(=S)Nc3ccc(C(F)(F)F)cc3)cc2)[C@H](O)[C@@H](O)[C@H]1O`, the viability at 24 h, 80 µM is 86.2%.
For the molecule `OC[C@H]1O[C@@H](Oc2ccc(COC(=S)Nc3ccc(C(F)(F)F)cc3)cc2)[C@H](O)[C@@H](O)[C@@H]1O`, the viability at 24 h, 80 µM was 91.7%.

In the next series the test system is HepG2. Nature of the series: Induction of apoptosis in human HepG2 cells at 80 uM incubated for 24 hrs by annexin V-FITC/propidium iodide staining based flow cytometry analysis relative to control. The series is classed as functional.
Conditions: not given
(In general: A flow cytometer gives signals particle by particle.)
The molecule `OC[C@H]1O[C@H](Oc2ccc(COC(=S)Nc3ccc(C(F)(F)F)cc3)cc2F)[C@@H](O)[C@@H](O)[C@@H]1O` had an Activity of 24.4%.
Turning to `OC[C@H]1O[C@@H](Oc2ccc(COC(=S)Nc3ccc(C(F)(F)F)cc3)cc2)[C@H](O)[C@@H](O)[C@H]1O`, the result was inactive.
For the molecule `OC[C@H]1O[C@@H](Oc2ccc(COC(=S)Nc3ccc(C(F)(F)F)cc3)cc2)[C@H](O)[C@@H](O)[C@@H]1O`, the outcome was inactive.

The subject of another series is HeLa. Nature of the series: Induction of apoptosis in human HeLa cells at 80 uM incubated for 24 hrs by annexin V-FITC/propidium iodide staining based flow cytometry analysis relative to control. The class given is functional.
Conditions: not given
With `OC[C@H]1O[C@H](Oc2ccc(COC(=S)Nc3ccc(C(F)(F)F)cc3)cc2F)[C@@H](O)[C@@H](O)[C@@H]1O`, the Activity is reported as 40.6%.
As to `OC[C@H]1O[C@@H](Oc2ccc(COC(=S)Nc3ccc(C(F)(F)F)cc3)cc2)[C@H](O)[C@@H](O)[C@H]1O`, the outcome was inactive.
Still for that read-out and setting: to `OC[C@H]1O[C@@H](Oc2ccc(COC(=S)Nc3ccc(C(F)(F)F)cc3)cc2)[C@H](O)[C@@H](O)[C@@H]1O` belongs “inactive”.

The subject of the next series is HeLa. Nature of the series: Induction of apoptosis in human HeLa cells assessed as viable cells at 80 uM incubated for 24 hrs by annexin V-FITC/propidium iodide staining based flow cytometry analysis (reference value: 91.7 %). Conditions: read-out: Activity. The class given is functional.
`OC[C@H]1O[C@H](Oc2ccc(COC(=S)Nc3ccc(C(F)(F)F)cc3)cc2F)[C@@H](O)[C@@H](O)[C@@H]1O`: the viability at 80 µM is 56.8%.

Another series deals with HeLa. Nature of the series: Induction of apoptosis in human HeLa cells assessed as early apoptotic cells at 80 uM incubated for 24 hrs by annexin V-FITC/propidium iodide staining based flow cytometry analysis (reference value: 3.59 %). The class given is functional.
Conditions: not given
As to `OC[C@H]1O[C@H](Oc2ccc(COC(=S)Nc3ccc(C(F)(F)F)cc3)cc2F)[C@@H](O)[C@@H](O)[C@@H]1O`, the Activity is 8.14%.

The test system of a further series is HeLa. Nature of the series: Induction of apoptosis in human HeLa cells assessed as late apoptotic cells at 80 uM incubated for 24 hrs by annexin V-FITC/propidium iodide staining based flow cytometry analysis (reference value: 3.95 %).
Conditions: not given
The series is classed as functional.
Consider `OC[C@H]1O[C@H](Oc2ccc(COC(=S)Nc3ccc(C(F)(F)F)cc3)cc2F)[C@@H](O)[C@@H](O)[C@@H]1O`, for which the Activity worked out at 23.9%.

The test system of a further series is HeLa. Nature of the series: Induction of apoptosis in human HeLa cells assessed as necrotic cells at 80 uM incubated for 24 hrs by annexin V-FITC/propidium iodide staining based flow cytometry analysis (reference value: 0.71 %). The class given is functional.
Conditions: not given
As to `OC[C@H]1O[C@H](Oc2ccc(COC(=S)Nc3ccc(C(F)(F)F)cc3)cc2F)[C@@H](O)[C@@H](O)[C@@H]1O`, the Activity was 8.15%.

The test system of a further series is HepG2. Nature of the series: Induction of apoptosis in human HepG2 cells assessed as viable cells at 80 uM incubated for 24 hrs by annexin V-FITC/propidium iodide staining based flow cytometry analysis (reference value: 87.1 %). The class given is functional. As to conditions: read-out: Activity.
With `OC[C@H]1O[C@H](Oc2ccc(COC(=S)Nc3ccc(C(F)(F)F)cc3)cc2F)[C@@H](O)[C@@H](O)[C@@H]1O`, the viability at 80 µM is 76.3%.

The test system of the next series is HepG2. Nature of the series: Induction of apoptosis in human HepG2 cells assessed as early apoptotic cells at 80 uM incubated for 24 hrs by annexin V-FITC/propidium iodide staining based flow cytometry analysis (reference value: 1.03 %). The series is classed as functional.
Conditions: not given
For `OC[C@H]1O[C@H](Oc2ccc(COC(=S)Nc3ccc(C(F)(F)F)cc3)cc2F)[C@@H](O)[C@@H](O)[C@@H]1O`, the Activity stood at 1.03%.

A further series concerns HepG2. Nature of the series: Induction of apoptosis in human HepG2 cells assessed as late apoptotic cells at 80 uM incubated for 24 hrs by annexin V-FITC/propidium iodide staining based flow cytometry analysis (reference value: 10.1 %). The series is classed as functional.
Conditions: not given
With `OC[C@H]1O[C@H](Oc2ccc(COC(=S)Nc3ccc(C(F)(F)F)cc3)cc2F)[C@@H](O)[C@@H](O)[C@@H]1O`, the Activity was found to be 18.3%.

In the next series the test system is HepG2. Nature of the series: Induction of apoptosis in human HepG2 cells assessed as necrotic cells at 80 uM incubated for 24 hrs by annexin V-FITC/propidium iodide staining based flow cytometry analysis (reference value: 1.63 %). The series is classed as functional.
Conditions: not given
As for `OC[C@H]1O[C@H](Oc2ccc(COC(=S)Nc3ccc(C(F)(F)F)cc3)cc2F)[C@@H](O)[C@@H](O)[C@@H]1O`, the Activity worked out at 3.44%.

Tested on in a further series: not listed separately
Nature of the series: Release of H2S in PBS at 50 uM at pH 7.4. The series is classed as physicochemical. As to conditions: buffer, pH 7.4, 50 µM.
`OC[C@H]1O[C@H](Oc2ccc(COC(=S)Nc3ccc(C(F)(F)F)cc3)cc2F)[C@@H](O)[C@@H](O)[C@@H]1O` came in with an Activity of 36%.
In turn, `OC[C@H]1O[C@@H](Oc2ccc(COC(=S)Nc3ccc(C(F)(F)F)cc3)cc2)[C@H](O)[C@@H](O)[C@H]1O` yielded an Activity of 36%.
In turn, `OC[C@H]1O[C@@H](Oc2ccc(COC(=S)Nc3ccc(C(F)(F)F)cc3)cc2)[C@H](O)[C@@H](O)[C@@H]1O` returned an Activity of 36%.
